Assay results as given in publication PMC10938783, “A novel pan-PI3K inhibitor KTC1101 synergizes with anti-PD-1 therapy by targeting tumor suppression and immune activation” (Molecular Cancer, 2024).

Assays:
[1] = Plasma metabolic stability assay; type: in vitro ADME; settings: mouse plasma, 37°C, 120 min incubation
Experimental: 495 µL of plasma was placed in a 96-well plate and pre-incubated at 37°C for 5 min.

[2] = Liver microsome metabolic stability assay; settings: mouse, liver microsomes
[3] = system: B16 tumor-bearing C57BL/6 mice; experiment: Toxicity and safety profiling in vivo (serum biochemistry, routine blood, H&E); set-up: species or system mouse; settings: hematological parameters in the blood
Experimental: The B16 tumor-bearing C57BL/6 mice were divided into 4 groups randomly (n = 3 per group) and treated with vehicle, KTC1101 (100 mg/kg 3on/4off, PO), anti-PD-1 antibody (250 μg per mouse, IP), or a combination of KTC1101 and anti-PD-1 antibody. After 14 days of treatment, all mice were sacrificed. Blood samples were collected for analysis; one portion was centrifuged (3000 rpm, 4 °C) to obtain serum for biochemical parameter analysis, including alanine aminotransferase (ALT), aspartate aminotransferase (AST), creatinine (CREA), and blood urea nitrogen (BUN). The other portion was used for routine blood examination. Major organs including the heart, liver, spleen, lung, and kidney were collected, sectioned, and stained with H&E for histopathological evaluation.

[4] = Pharmacokinetic study of oral administration; type: in vivo; settings: mouse, blood, BALB/c male mice, 100 mg/kg p.o.
Experimental: Chromatographic conditions employed a Waters BEH C18 column (2.1 mm × 50.0 mm, 1.7 µm) with a mobile phase comprising acetonitrile with 0.1% formic acid (A) and water with 0.1% formic acid (B), at a flow rate of 0.4 mL/min and a column temperature of 40°C. Gradient elution was used: 0–0.3 min, 20:80 → 20:80 (A:B); 0.3–2.5 min, 20:80 → 60:40 (A:B); 2.5–3.0 min, 60:40 → 100:0 (A:B); 3.0–3.01 min, 100:0 → 20:80 (A:B); 3.01–3.5 min, 20:80 → 20:80 (A:B). Mass spectrometry was performed using electrospray ionization (ESI) in positive ion mode, with a capillary voltage of 1 kV, a desolvation temperature of 450 °C, and a desolvation gas flow of 800 L/h. KTC1101 and internal standard phenacetin parameters were optimized for ionization and collision energies.
KTC1101 was prepared at 1 mg/mL concentration in acetonitrile, and further diluted to create a series of standard solutions. Blood samples were taken from BALB/c male mice (19 ± 2g) at various time points post-oral administration of KTC1101 (100 mg/kg). Samples were processed and analyzed using HPLC coupled with mass spectrometry. Data were calculated using Masslynx 4.1 and DAS 3.0 software.

[5] = system: phosphorylation of AKT and mTOR; experiment: Western blot of PI3K pathway; type: cell-based, human; settings: 48 h
Experimental: Western blots were performed as previously described. Cells were seeded into six-well plates and treated with DMSO or a series of concentrations of KTC1101. Cells were lysed, and total proteins were harvested. Equal amounts of protein (20–50 μg) were separated using 8% or 12% SDS-PAGE and transferred to polyvinylidene difluoride membranes (Bio-Rad). After blocking in 5% nonfat dry milk, the membranes were incubated with appropriate primary antibodies overnight at 4 °C, washed, and incubated with respective HRP-conjugated secondary antibodies for 1 h at room temperature. The signals were detected using a ChemiDoc XRS + System (Bio-Rad) after exposure to chemiluminescence reagents (Bio-Rad), and β-actin served as the loading control.

CAL33 tumors = experiment: CAL33 xenograft in NSG mice; type: in vivo, mouse; settings: 100 mg/kg PO
Experimental: (§1) BALB/c nude, NSG, and C57BL/6J mice were obtained from Tianjin Medical University. The housing temperature was controlled, ranging from 20.5–24 °C, and humidity was monitored but not controlled ranging from 30–70%. The 12-h daily light cycle was from 06:00 to 18:00. To generate a murine subcutaneous tumor model, PC3 and HSC2 cells were subcutaneously injected into the right lateral flank of 4- to 5-week-old male BALB/c nude mice. TMD8, CAL33, and S24 cells were subcutaneously injected into the right lateral flank of 4- to 5-week-old male NSG mice. When tumors reached a volume of 300–500 mm^3, they were excised, diced into 2 mm × 2 mm × 2 mm pieces, and implanted into the right flanks of BALB/c nude or NSG mice. Tumors were allowed to grow to a volume of 100 mm^3, and then the animals were randomly divided into several groups. Each group of five mice was treated with either vehicle or KTC1101 (25, 50, or 100 mg/kg, PO). Tumor size was measured every 3 d or 4 d until the endpoint. The tumor volume was calculated using the following formula: length × width × height/2. At the end of the experimental period, mice were euthanized by overdosing on pentobarbital sodium, and the tumors were removed. Tumor tissue was formalin-fixed and paraffin-embedded for histological analysis.

PC3 tumors = experiment: PC3 xenograft in BALB/c nude mice; type: in vivo, mouse
Experimental: as §1

TMD8 cells = experiment: Cell proliferation MTT assay; type: cell-based; settings: Homo sapiens; TMD8, 48-h treatment; read-out: IC50 cell viability
Experimental: (§2) Cell proliferation was measured by MTT assay as previously described. The cells were seeded in a volume of 200 μL/well in 96-well plates. The next day, cells were treated with DMSO or a series of concentrations of KTC1101. After a 48-h incubation period, 20 μL of MTT (5 mg/mL) was added to each well. After further incubation for 4 h at 37 °C, the absorbance at 490 nm was measured using an iMark microplate reader (BIO-RAD, Hercules, CA, USA).

PC3 cells = experiment: Cell proliferation MTT assay; type: cell-based; settings: Homo sapiens, PC-3; PC3, 48-h treatment; read-out: IC50 cell viability
Experimental: as §2

HSC2 cells = experiment: Cell proliferation MTT assay; type: cell-based; settings: Homo sapiens, HSC-2; HSC2, 48-h treatment; read-out: IC50 cell viability
Experimental: as §2

CAL33 cells = experiment: Cell proliferation MTT assay; type: cell-based; settings: Homo sapiens, CAL-33; CAL33, 48-h treatment; read-out: IC50 cell viability
Experimental: as §2

HSC4 cells = experiment: Cell proliferation MTT assay; type: cell-based; settings: Homo sapiens, HSC-4; HSC4, 48-h treatment; read-out: IC50 cell viability
Experimental: as §2

## COc1cc(N)cc2c1nc(C(F)F)n2-c1nc(N2CCCOCC2)nc(N2CCOCC2)n1 [KTC1101, 2-(difluoromethyl)-4-methoxy-1-(4-morpholino-6-(1,4-oxazepan-4-yl)-1,3,5-triazin-2-yl)-1H-benzo[d]imidazol-6-amine]
[1]
  half-life at 1 µM: > 120 min
[2]
  half-life at 1 µM: 40.7 min
  microsomal CLint at 1 µM: 34 µL/min/mg
[3]
  GRAN: 0.93±0.67 109L-1
  MCV: 52.90 ± 8.84 fL
  PLT: 745.00±220.75 109L-1
  RBC: 6.03±2.50 1012L-1
  RDW: 17.97±3.41%
  WBC: 3.67±3.06 109L-1
[4]
  AUC(0-t): 9330 ng·h/mL
  Cmax: 1660 ng/mL
  Tmax: 40.2 min
  half-life: 431 ± 244 min
[4]; read-out: CLz/F (converted)
  CL/F: 179 mL/min/kg
[4]; read-out: Vz/F
  Vd/F: 118 ± 85.5 L/kg
[5]
  phosphorylation of AKT and mTOR: reduced phosphorylation
CAL33 tumors
  tumor growth: Tumor growth arrest
PC3 tumors; 25 mg/kg PO
  tumor growth: significant delay in tumor growth
PC3 tumors; 50 mg/kg PO
  efficacy in inhibiting PC3 tumors: equivalent to 200 mg/kg ZSTK474
PC3 tumors; 100 mg/kg PO
  tumor growth: Tumor growth arrest
TMD8 cells
  IC50: 20.6 nM
PC3 cells
  IC50: 23.2 nM
HSC2 cells
  IC50: 117 nM
CAL33 cells
  IC50: 124 nM
HSC4 cells
  IC50: 50.6 nM
